The values that follow come from publication PMC11233931, “Remodeling tumor‐associated macrophage for anti‐cancer effects by rational design of irreversible inhibition of mitogen‐activated protein kinase‐activated protein kinase 2” (MedComm, 2024).

Common to all, as to assay: Eurofins kinase selectivity profile against 380 other human recombinant kinases (Table S2)
Format in all cases: biochemical

For assay [1], the target named is T1, 380 human recombinant protein kinases (Homo sapiens, UniProt Q00526).
T1 construct: purchased Eurofins (Celle Lévescault)
The note with it: CDK3/cyclinE(h), read-out: Inhibition rate. The essentials:
(§1)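 Values come from a contract kinase-profiling service that tested the compound at multiple concentrations across 380 recombinant human kinases, as an off-target check against the MK2 activity.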

The target in assay [2] is T2, 380 human recombinant protein kinases (Homo sapiens, UniProt Q13546).
T2 construct: purchased Eurofins (Celle Lévescault)
T2 sequence (Q13546 1-671): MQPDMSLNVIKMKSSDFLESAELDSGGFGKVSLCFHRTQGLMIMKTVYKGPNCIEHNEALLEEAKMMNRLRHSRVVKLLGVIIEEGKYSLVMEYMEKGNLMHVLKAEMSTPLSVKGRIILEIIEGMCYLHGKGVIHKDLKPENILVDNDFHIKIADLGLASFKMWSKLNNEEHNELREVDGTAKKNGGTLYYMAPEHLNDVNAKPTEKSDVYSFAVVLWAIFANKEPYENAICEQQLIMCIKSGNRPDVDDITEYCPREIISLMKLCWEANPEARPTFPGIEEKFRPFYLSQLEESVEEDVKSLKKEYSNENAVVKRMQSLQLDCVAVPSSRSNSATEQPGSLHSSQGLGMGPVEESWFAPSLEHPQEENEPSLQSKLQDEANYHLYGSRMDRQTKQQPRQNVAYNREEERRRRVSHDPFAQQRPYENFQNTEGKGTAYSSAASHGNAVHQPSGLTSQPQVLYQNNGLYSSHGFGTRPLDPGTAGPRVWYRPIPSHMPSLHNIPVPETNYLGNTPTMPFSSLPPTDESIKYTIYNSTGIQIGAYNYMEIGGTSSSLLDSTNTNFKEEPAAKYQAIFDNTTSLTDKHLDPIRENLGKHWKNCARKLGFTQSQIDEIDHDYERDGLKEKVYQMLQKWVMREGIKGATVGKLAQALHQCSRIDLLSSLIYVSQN
As to conditions: RIPK1(h), read-out: Inhibition rate. The essentials:
as §1

The target of assay [3] is T3, 380 human recombinant protein kinases (Homo sapiens, UniProt Q7L7X3).
T3 construct: purchased Eurofins (Celle Lévescault)
T3 sequence (Q7L7X3 1-1001): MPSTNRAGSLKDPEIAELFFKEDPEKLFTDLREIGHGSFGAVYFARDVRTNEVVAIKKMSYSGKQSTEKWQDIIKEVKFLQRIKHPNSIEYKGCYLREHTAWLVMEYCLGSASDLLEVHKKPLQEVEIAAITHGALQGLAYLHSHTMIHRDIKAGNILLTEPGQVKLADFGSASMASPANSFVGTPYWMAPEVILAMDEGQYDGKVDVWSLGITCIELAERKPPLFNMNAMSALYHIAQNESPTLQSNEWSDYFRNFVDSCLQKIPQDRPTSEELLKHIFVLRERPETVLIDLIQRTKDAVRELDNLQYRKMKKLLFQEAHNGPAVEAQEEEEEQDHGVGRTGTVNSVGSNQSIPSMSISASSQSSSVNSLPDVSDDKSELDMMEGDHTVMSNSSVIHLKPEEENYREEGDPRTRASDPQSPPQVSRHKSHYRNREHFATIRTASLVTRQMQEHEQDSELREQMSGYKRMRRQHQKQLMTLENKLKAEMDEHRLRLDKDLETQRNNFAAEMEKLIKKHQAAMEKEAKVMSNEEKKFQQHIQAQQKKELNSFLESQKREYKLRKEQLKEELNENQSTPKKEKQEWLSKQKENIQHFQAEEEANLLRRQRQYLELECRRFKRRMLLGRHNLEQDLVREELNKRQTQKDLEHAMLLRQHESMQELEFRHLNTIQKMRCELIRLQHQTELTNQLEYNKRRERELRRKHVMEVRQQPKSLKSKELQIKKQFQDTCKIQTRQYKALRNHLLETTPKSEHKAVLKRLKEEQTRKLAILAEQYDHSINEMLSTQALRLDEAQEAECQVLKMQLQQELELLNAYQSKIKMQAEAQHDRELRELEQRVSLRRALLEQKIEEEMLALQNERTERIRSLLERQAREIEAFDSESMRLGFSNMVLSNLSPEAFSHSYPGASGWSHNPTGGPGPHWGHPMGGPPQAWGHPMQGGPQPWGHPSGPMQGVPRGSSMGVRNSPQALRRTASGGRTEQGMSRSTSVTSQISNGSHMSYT
As to conditions: TAO1(h), read-out: Inhibition rate (%). In a few lines: as §1

T1 sequence (Q00526 whole entry): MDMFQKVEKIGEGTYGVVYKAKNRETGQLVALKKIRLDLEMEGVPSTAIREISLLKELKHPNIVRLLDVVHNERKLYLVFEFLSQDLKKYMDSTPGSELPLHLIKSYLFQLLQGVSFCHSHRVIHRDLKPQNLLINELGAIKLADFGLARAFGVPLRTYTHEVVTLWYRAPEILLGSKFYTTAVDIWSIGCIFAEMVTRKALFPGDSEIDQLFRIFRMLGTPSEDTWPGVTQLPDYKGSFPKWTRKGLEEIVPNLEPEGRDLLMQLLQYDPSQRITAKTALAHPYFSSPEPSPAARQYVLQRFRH

As usually defined, the inhibition is the drop in the measured response relative to a control, in per cent. For `C=CC(=O)Nc1cc(-c2cc(-c3cc4c([nH]3)CCNC4=O)ccn2)ccc1OC(F)(F)F` [compound 11], the inhibition at 0.01 µM in assay [1] (10 nM) was -5%; in assay [2] (10 nM), -7%; in assay [3] (10 nM) it was 3%. Further, the inhibition at 0.1 µM in assay [1] (100 nM) is -1%; in assay [2] (100 nM) it was -3%; in assay [3] (100 nM), 6%. In addition, the inhibition at 1 µM in assay [1] (1000 nM) was 0%; in assay [2] (1000 nM) it was 3%; in assay [3] (1000 nM), 11%.
